Experimental findings from US9487555B2, “Prodrug of an ice inhibitor” (VERTEX PHARMACEUTICALS INCORPORATED, priority 2000, dated 2016) are described below.

This data set can be described thus: Oral pharmacokinetic studies in rats (quantitation of ICE inhibitor in rat plasma by HPLC/MS/MS). The format is in vivo, Male Sprague-Dawley rats. Conditions: for AUC: male Sprague-Dawley rats, oral 50 mg/kg in 100% propylene glycol, plasma, noncompartmental; for Bioavailability (in words): amount of ICE inhibitor in rat plasma after oral administration, comparison in words. Here is the method: Applicants studied a number of prodrug ICE inhibitors, including examples listed in the aforementioned WO 99/47545. Bioavailability was determined by quantitating the amount of ICE inhibitor in rat plasma after oral administration, as described below.
Male Sprague-Dawley rats (Harlan, Indianapolis, Ind., 300-350 g) were anesthetized by an intramuscular injection of ketamine/rompun mixture. A PE-50 cannula was inserted in the right carotid artery for arterial blood sampling. The rats were allowed to recover from surgery overnight (16 hours) prior to being used in the study. Test compounds were administered orally at 50 mg/kg 100% propylene glycol (PG) at a dose volume of 10 mL/kg. Blood samples (˜0.30 mL) were removed at 0.25, 0.50, 1.0, 1.5, 2, 3, 4, 6, and 8 hours post-dose, plasma separated by centrifugation and stored at −80° C. pending analysis. Quantification of the plasma samples was conducted using a gradient HPLC/MS/MS similar to the one detailed below: […]
HPLC/MS/MS Method for the Quantitation of ICE Inhibitors in Rat Plasma
1. 100 μl of plasma are aliquotted into Ependorf centrifuge vials.
2. An equal volume of acetonitrile is added to the plasma to precipitate plasma proteins.
3. Samples are vortexed for 2 minutes, and centrifuged at 14,000 rpms for 3 minutes.
4. 100 μl of the supernatant is loaded into 12 mm HPLC liquid sampler vials.
5. A 20 μl addition of […] standard is added to the 100 μl aliquot to monitor variation in instrumental response.
6. 10 μl of sample is injected for analysis via the mass spectrometer.
HPLC Instrumental Parameters
• HPLC: Hewlett Packard HP1100 Binary Solvent Delivery System. HPLC Gradient Conditions • A=H2O 0.2% Formic Acid • B=Acetonitrile 0.2% Formic Acid Mobile Phase
• HPLC Analytical Column: Keystone Phenyl-1 Hypersil 2.0×100 mm, 5μ 120 Å pore pore size, P/N# 105-36-2. • Injection Volume: 10 μl • Flow Rate: 0.20 mL/min. Mass Spectrometry Instrumental Parameters • Instrument: Micromass Quattro Ultima, Tandem Mass Spectrometer • Ionization Technique: Orthogonal spray (ESI) • Polarity: Positive • Dwell Time: 300 msec • Pause Time: 5 msec • Scan time: 0.9 sec • Scan Mode: MRM (Multiple Reaction Monitoring) • Ions/Transitions: For compound I-A m/z509.1-243.1 • For compound II m/z481.1-215.1 Pharmacokinetic Parameters
Pharmacokinetic analysis of these plasma concentration data was conducted using noncompartmental methods. The area under the curve (AUC(0-t)) was estimated from time zero to the last measured time point using the linear trapezoidal rule. The rate of elimination (ke) was estimated by log-linear regression from the terminal phase of the plasma concentration-time curves. Area under the tail of the curve was estimated as the ratio of the last measured concentration to ke. The area under the curve from time zero to infinity (AUC(0-∞)) was obtained by addition of the area under the tail to AUC(0-t). Elimination half-life was estimated as 0.693/ke. The observed values for the peak plasma concentration (Cmax) were recorded.

The structures appear in SMILES notation.

Molecule `CCO[C@@H]1OC(=O)C[C@@H]1NC(=O)[C@@H]1CCCN1C(=O)[C@H](C)NC(=O)c1ccc(N)c(Cl)c1` [Compound A, reference compound] came in with an AUC of 2.18 μgXh/mL.

`CCOC1OC(=O)C[C@@H]1NC(=O)[C@@H]1CCCN1C(=O)[C@@H](NC(=O)c1nccc2ccccc12)C(C)(C)C` (some centres unmarked) [Compound B, reference compound] registered an AUC of 1.35 μgXh/mL.

`CCO[C@@H]1OC(=O)C[C@@H]1NC(=O)[C@@H]1CCCN1C(=O)[C@@H](NC(=O)c1ccc(N)c(Cl)c1)C(C)(C)C` [Compound I]: the “Bioavailability (in words)” value is reported as “unexpectedly improved bioavailability” and the AUC is listed as 11.7 μgXh/mL.

Turning to `CC(C)(C)C(NC(=O)c1ccc(N)c(Cl)c1)C(=O)N1CCCC1C(=O)NC(C=O)CC(=O)O` (centres unmarked) [II], the “Bioavailability (in words)” value is on record as “poor bioavailability”.
